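All cell lines were grown in 96-well plates and treated with compound for 48 hours. GI50 marks 50% less growth.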 Activity calls are given as the source filed them. Rule as the data show it: active = GI50 up to about 1.1 µM and inactive = higher.
Assays:
Experiment in all cases: growth of human tumour cells (NCI), 48 h
[1] = test system: SN12C
[2] = test system: CAKI-1
[3] = test system: COLO 205
[4] = test system: TK-10
[5] = test system: SF-539
[6] = test system: CCRF-CEM
[7] = test system: SK-MEL-28
[8] = test system: RPMI-8226
[9] = test system: DLD-1
[10] = test system: SNB-78
[11] = test system: NCI-H226
[12] = test system: M19-MEL
[13] = test system: LOX IMVI
[14] = test system: NCI-H522
[15] = test system: RXF 393
[16] = test system: 786-0
[17] = test system: DMS-273
[18] = test system: SF-268
[19] = test system: HOP-62
[20] = test system: UACC-62
[21] = test system: SNB-75
[22] = test system: SK-OV-3
[23] = test system: SF-295
[24] = test system: SNB-19
[25] = test system: OVCAR-8
[26] = test system: M14
[27] = test system: DMS-114
[28] = test system: IGROV-1
[29] = test system: LXFL 529
[30] = test system: K562
[31] = test system: HCC 2998
[32] = test system: SK-MEL-2
[33] = test system: MOLT-4
[34] = test system: UACC-257
[35] = test system: OVCAR-3
[36] = test system: EKVX
[37] = test system: XF498
[38] = test system: Malme-3M
[39] = test system: NCI-H23
[40] = test system: KM12
[41] = test system: A549
[42] = test system: HT-29
[43] = test system: UO-31
[44] = test system: RXF 631
[45] = test system: SK-MEL-5
[46] = test system: HL-60
[47] = test system: SW-620
[48] = test system: HCT-15
[49] = test system: A498
[50] = test system: HCT-116
[51] = test system: ACHN
[52] = test system: U-251
[53] = test system: NCI-H460
[54] = test system: HOP-92
[55] = test system: OVCAR-5
[56] = test system: HOP-18
[57] = test system: SR
[58] = test system: KM-20L2

`O=C(O)c1ccc([C@@H]2C(=O)N(O)[C@@H]3C=CC[C@@H]32)cc1` was tested, and the GI50 [1] was > 100 µM (inactive), the GI50 [2] was > 100 µM (inactive) and the GI50 [3] was > 100 µM (inactive). For the same compound, the GI50 [4] was > 100 µM (inactive), the GI50 [5] was > 100 µM (inactive) and the GI50 [6] was > 100 µM (inactive). The GI50 [7] was > 100 µM (inactive), the GI50 [8] was > 100 µM (inactive) and the GI50 [9] was > 100 µM (inactive). For the same compound, the GI50 [10] was > 100 µM (inactive), the GI50 [11] was > 100 µM (inactive) and the GI50 [12] was > 100 µM (inactive). For the same compound, the GI50 [13] was > 100 µM (inactive), the GI50 [14] was > 100 µM (inactive) and the GI50 [15] was > 100 µM (inactive). The GI50 [16] was > 100 µM (inactive), the GI50 [17] was > 100 µM (inactive) and the GI50 [18] was > 100 µM (inactive). The GI50 [19] was > 100 µM (inactive), the GI50 [20] was > 100 µM (inactive) and the GI50 [21] was > 100 µM (inactive). The GI50 [22] was > 100 µM (inactive), the GI50 [23] was > 100 µM (inactive) and the GI50 [24] was > 100 µM (inactive). For the same compound, the GI50 [25] was > 100 µM (inactive), the GI50 [26] was > 100 µM (inactive) and the GI50 [27] was > 100 µM (inactive). For the same compound, the GI50 [28] was > 100 µM (inactive), the GI50 [29] was > 100 µM (inactive) and the GI50 [30] was > 100 µM (inactive). For the same compound, the GI50 [31] was > 100 µM (inactive), the GI50 [32] was > 100 µM (inactive) and the GI50 [33] was > 100 µM (inactive). For the same compound, the GI50 [34] was > 100 µM (inactive), the GI50 [35] was > 100 µM (inactive) and the GI50 [36] was > 100 µM (inactive). The GI50 [37] was > 100 µM (inactive), the GI50 [38] was > 100 µM (inactive) and the GI50 [39] was > 100 µM (inactive). For the same compound, the GI50 [40] was > 100 µM (inactive), the GI50 [41] was > 100 µM (inactive) and the GI50 [42] was > 100 µM (inactive). The GI50 [43] was > 100 µM (inactive), the GI50 [44] was > 100 µM (inactive) and the GI50 [45] was > 100 µM (inactive). For the same compound, the GI50 [46] was > 100 µM (inactive), the GI50 [47] was > 100 µM (inactive) and the GI50 [48] was > 100 µM.

`CCOC(=O)C(Cc1ccccc1)NC(=O)OC(C)(C)C` (stereo not given) was tested, and the GI50 [1] was > 100 µM (inactive), the GI50 [2] was > 10 µM (inactive) and the GI50 [3] was > 100 µM (inactive). For the same compound, the GI50 [4] was > 100 µM (inactive), the GI50 [5] was > 100 µM (inactive) and the GI50 [6] was > 100 µM (inactive). For the same compound, the GI50 [7] was > 100 µM (inactive), the GI50 [9] was > 100 µM (inactive) and the GI50 [10] was > 100 µM (inactive). The GI50 [12] was > 100 µM (inactive), the GI50 [13] was > 100 µM (inactive) and the GI50 [14] was > 10 µM (inactive). The GI50 [49] was > 100 µM (inactive), the GI50 [16] was > 100 µM (inactive) and the GI50 [17] was > 100 µM (inactive). For the same compound, the GI50 [18] was > 100 µM (inactive), the GI50 [19] was > 100 µM (inactive) and the GI50 [50] was > 100 µM (inactive). The GI50 [51] was > 100 µM (inactive), the GI50 [52] was > 100 µM (inactive) and the GI50 [20] was > 100 µM (inactive). For the same compound, the GI50 [21] was > 100 µM (inactive), the GI50 [22] was > 100 µM (inactive) and the GI50 [23] was > 100 µM (inactive). For the same compound, the GI50 [53] was > 100 µM (inactive), the GI50 [24] was > 100 µM (inactive) and the GI50 [25] was > 100 µM (inactive). For the same compound, the GI50 [26] was > 100 µM (inactive), the GI50 [27] was > 100 µM (inactive) and the GI50 [28] was > 100 µM (inactive). The GI50 [29] was > 100 µM (inactive), the GI50 [30] was > 100 µM (inactive) and the GI50 [31] was > 100 µM (inactive). For the same compound, the GI50 [54] was > 100 µM (inactive), the GI50 [32] was > 100 µM (inactive) and the GI50 [33] was > 100 µM (inactive). For the same compound, the GI50 [34] was > 100 µM (inactive), the GI50 [35] was > 100 µM (inactive) and the GI50 [37] was > 100 µM (inactive). For the same compound, the GI50 [38] was > 100 µM (inactive), the GI50 [39] was > 100 µM (inactive) and the GI50 [40] was > 100 µM (inactive). The GI50 [41] was > 100 µM (inactive), the GI50 [42] was > 100 µM (inactive) and the GI50 [43] was > 100 µM (inactive). The GI50 [44] was > 100 µM (inactive), the GI50 [46] was > 100 µM (inactive) and the GI50 [47] was > 100 µM (inactive). For the same compound, the GI50 [55] was > 100 µM (inactive) and the GI50 [48] was > 100 µM.

In the case of `COC(=O)/C(C#N)=C1\NN=NN1c1ccc(OC)cc1`, the GI50 [1] is reported as > 100 µM (inactive), the GI50 [2] is reported as > 100 µM (inactive) and the GI50 [3] is reported as > 100 µM (inactive). The GI50 [4] was > 100 µM (inactive), the GI50 [5] was > 100 µM (inactive) and the GI50 [6] was > 100 µM (inactive). The GI50 [7] was > 100 µM (inactive), the GI50 [8] was > 100 µM (inactive) and the GI50 [9] was > 100 µM (inactive). The GI50 [10] was > 100 µM (inactive), the GI50 [11] was > 100 µM (inactive) and the GI50 [12] was > 100 µM (inactive). The GI50 [13] was > 100 µM (inactive), the GI50 [14] was > 100 µM (inactive) and the GI50 [15] was > 100 µM (inactive). For the same compound, the GI50 [49] was > 100 µM (inactive), the GI50 [16] was > 100 µM (inactive) and the GI50 [17] was > 100 µM (inactive). The GI50 [50] was > 100 µM (inactive), the GI50 [51] was > 100 µM (inactive) and the GI50 [52] was > 100 µM (inactive). For the same compound, the GI50 [20] was > 100 µM (inactive), the GI50 [21] was > 100 µM (inactive) and the GI50 [22] was > 100 µM (inactive). For the same compound, the GI50 [23] was > 100 µM (inactive), the GI50 [53] was > 100 µM (inactive) and the GI50 [24] was > 100 µM (inactive). The GI50 [25] was > 100 µM (inactive), the GI50 [26] was > 100 µM (inactive) and the GI50 [27] was > 100 µM (inactive). The GI50 [28] was > 100 µM (inactive), the GI50 [29] was > 100 µM (inactive) and the GI50 [30] was > 100 µM (inactive). The GI50 [31] was > 100 µM (inactive), the GI50 [54] was > 100 µM (inactive) and the GI50 [33] was > 100 µM (inactive). The GI50 [34] was > 100 µM (inactive), the GI50 [35] was > 100 µM (inactive) and the GI50 [36] was > 100 µM (inactive). The GI50 [38] was > 100 µM (inactive), the GI50 [39] was > 100 µM (inactive) and the GI50 [40] was > 100 µM (inactive). The GI50 [41] was > 100 µM (inactive), the GI50 [42] was > 100 µM (inactive) and the GI50 [43] was > 100 µM (inactive). For the same compound, the GI50 [44] was > 100 µM (inactive), the GI50 [45] was > 100 µM (inactive) and the GI50 [47] was > 100 µM (inactive). The GI50 [56] was > 100 µM (inactive) and the GI50 [48] was > 100 µM.

For `O=P(O)(O)C1CCCC(P(=O)(O)O)N1` (stereo not given), the GI50 [4] was > 100 µM (inactive), the GI50 [6] was > 100 µM (inactive) and the GI50 [7] was > 100 µM (inactive). For the same compound, the GI50 [10] was > 100 µM (inactive), the GI50 [11] was > 100 µM (inactive) and the GI50 [12] was > 100 µM (inactive). For the same compound, the GI50 [14] was > 100 µM (inactive), the GI50 [15] was > 100 µM (inactive) and the GI50 [49] was > 100 µM (inactive). For the same compound, the GI50 [17] was > 100 µM (inactive), the GI50 [18] was > 100 µM (inactive) and the GI50 [19] was > 100 µM (inactive). The GI50 [50] was > 100 µM (inactive), the GI50 [51] was > 100 µM (inactive) and the GI50 [52] was > 100 µM (inactive). The GI50 [22] was > 100 µM (inactive), the GI50 [23] was > 100 µM (inactive) and the GI50 [53] was > 100 µM (inactive). For the same compound, the GI50 [24] was > 100 µM (inactive), the GI50 [25] was > 100 µM (inactive) and the GI50 [26] was > 100 µM (inactive). For the same compound, the GI50 [27] was > 100 µM (inactive), the GI50 [28] was > 100 µM (inactive) and the GI50 [57] was > 100 µM (inactive). The GI50 [54] was > 100 µM (inactive), the GI50 [58] was > 100 µM (inactive) and the GI50 [33] was > 100 µM (inactive). For the same compound, the GI50 [34] was > 100 µM (inactive), the GI50 [36] was > 100 µM (inactive) and the GI50 [39] was > 100 µM (inactive). The GI50 [40] was > 100 µM (inactive), the GI50 [41] was > 100 µM (inactive) and the GI50 [42] was > 100 µM (inactive). For the same compound, the GI50 [43] was > 100 µM (inactive), the GI50 [44] was > 100 µM (inactive) and the GI50 [46] was > 100 µM (inactive). The GI50 [55] was > 100 µM (inactive).
